Measurements: patent US9284580B2 (priority 2010, dated 2016)
Where two headings read alike, the source gives them in different places.

Tests used:
S. cerevisiae strains = settings: 1% (v/v) butanol; most S. cerevisiae strains; cited from earlier work
P. putida = settings: several strains of P. putida; cited from earlier work
E. coli = settings: 2% (v/v) butanol; cited from earlier work
[1] = test system: C. beijerinckii ATCC 55025
Excerpt: Cell growth was monitored by measuring the optical density at 600 nm (OD600) of the culture broth.

Substance: butanol
- relative specific growth rate (S. cerevisiae strains): 60%
- tolerated butanol concentration (P. putida): up to 6 % (w/v)
- growth (E. coli): no growth was observed
- growth rate reduction ([1]; 1% (v/v) butanol): ~20%
- growth rate reduction ([1]; 1.5% (v/v) butanol): ~85%
- cell growth ([1]; 2% (v/v) butanol, no cell growth even after 10 days incubation): completely inhibited
